Measured values reported in ChEMBL document CHEMBL5715949, “Discovery of a selective irreversible BMX inhibitor for prostate cancer” (ACS Chem Biol, 2013).
The source made the active and inactive calls. No cut-off for these calls is given here.

Legend:
[1] = target: Serine/threonine-protein kinase 3 (Homo sapiens) (UniProt Q13188); experiment: Inhibition of MST2 (unknown origin) assessed as remaining activity at 1 uM by Kinome scan method relative to control
[2] = target: Mitogen-activated protein kinase 14 (Homo sapiens) (UniProt Q16539); experiment: Inhibition of P38alpha (unknown origin) assessed as remaining activity at 1 uM by Kinome scan method relative to control
[3] = Antiproliferative activity against human RV-1 cells assessed growth inhibition incubated for 2 to 5 days by CellTiter-Glo assay; type: functional; conditions: time 2-5 day
VCaP = experiment: Antiproliferative activity against human VCaP cells assessed growth inhibition incubated for 2 to 5 days by CellTiter-Glo assay; type: functional; conditions: time 2-5 day
[4] = tested on: Tyrosine-protein kinase ABL1 (Homo sapiens), P00519 [F317I]; experiment: Inhibition of ABL1 F317I mutant (unknown origin) assessed as remaining activity at 1 uM by Kinome scan method relative to control
[5] = tested on: Tyrosine-protein kinase ABL1 (Homo sapiens), P00519 [T315I]; experiment: Inhibition of ABL1 T315I mutant (unknown origin) assessed as remaining activity at 1 uM by Kinome scan method relative to control
[6] = target: Bone morphogenetic protein receptor type-1A (Homo sapiens) (UniProt P36894); experiment: Inhibition of BMPR1A (unknown origin) assessed as remaining activity at 1 uM by Kinome scan method relative to control
[7] = target: Bone morphogenetic protein receptor type-2 (Homo sapiens) (UniProt Q13873); experiment: Inhibition of BMPR2 (unknown origin) assessed as remaining activity at 1 uM by Kinome scan method relative to control
[8] = target: Cyclin-dependent kinase 8 (Homo sapiens) (UniProt P49336); experiment: Inhibition of CDK8 (unknown origin) assessed as remaining activity at 1 uM by Kinome scan method relative to control
[9] = target: Dual specificity protein kinase CLK4 (Homo sapiens) (UniProt Q9HAZ1); experiment: Inhibition of CLK4 (unknown origin) assessed as remaining activity at 1 uM by Kinome scan method relative to control
[10] = target: Casein kinase II subunit alpha (Homo sapiens) (UniProt P68400); experiment: Inhibition of CSNK2A1 (unknown origin) assessed as remaining activity at 1 uM by Kinome scan method relative to control
[11] = target: Death-associated protein kinase 1 (Homo sapiens) (UniProt P53355); experiment: Inhibition of DAPK1 (unknown origin) assessed as remaining activity at 1 uM by Kinome scan method relative to control
[12] = target: Mitogen-activated protein kinase kinase kinase 12 (Homo sapiens) (UniProt Q12852); experiment: Inhibition of DLK (unknown origin) assessed as remaining activity at 1 uM by Kinome scan method relative to control
[13] = target: Receptor tyrosine-protein kinase erbB-4 (Homo sapiens) (UniProt Q15303); experiment: Inhibition of ERBB4 (unknown origin) assessed as remaining activity at 1 uM by Kinome scan method relative to control
[14] = tested on: Receptor-type tyrosine-protein kinase FLT3 (Homo sapiens), P36888 [UNDEFINED MUTATION]; experiment: Inhibition of FLT3 ITD mutant (unknown origin) assessed as remaining activity at 1 uM by Kinome scan method relative to control
[15] = target: Tyrosine-protein kinase HCK (Homo sapiens) (UniProt P08631); experiment: Inhibition of HCK (unknown origin) assessed as remaining activity at 1 uM by Kinome scan method relative to control
[16] = target: Hormonally up-regulated neu tumor-associated kinase (Homo sapiens) (UniProt P57058); experiment: Inhibition of HUNK (unknown origin) assessed as remaining activity at 1 uM by Kinome scan method relative to control
[17] = target: Tyrosine-protein kinase JAK1 (Homo sapiens) (UniProt P23458); experiment: Inhibition of JAK1 JH1 domain (unknown origin) assessed as remaining activity at 1 uM by Kinome scan method relative to control
[18] = target: Tyrosine-protein kinase JAK2 (Homo sapiens) (UniProt O60674); experiment: Inhibition of JAK2 JH1 domain (unknown origin) assessed as remaining activity at 1 uM by Kinome scan method relative to control
[19] = target: Mitogen-activated protein kinase 8 (Homo sapiens) (UniProt P45983); experiment: Inhibition of JNK1 (unknown origin) assessed as remaining activity at 1 uM by Kinome scan method relative to control
[20] = target: Serine/threonine-protein kinase MAK (Homo sapiens) (UniProt P20794); experiment: Inhibition of MAK (unknown origin) assessed as remaining activity at 1 uM by Kinome scan method relative to control
[21] = target: Mitogen-activated protein kinase kinase kinase 11 (Homo sapiens) (UniProt Q16584); experiment: Inhibition of MLK3 (unknown origin) assessed as remaining activity at 1 uM by Kinome scan method relative to control
[22] = target: Rho-associated protein kinase 1 (Homo sapiens) (UniProt Q13464); experiment: Inhibition of ROCK1 (unknown origin) assessed as remaining activity at 1 uM by Kinome scan method relative to control
[23] = target: Ribosomal protein S6 kinase alpha-1 (Homo sapiens) (UniProt Q15418); experiment: Inhibition of N-terminal kinase domain RSK1 (unknown origin) assessed as remaining activity at 1 uM by Kinome scan method relative to control
[24] = target: Cytoplasmic tyrosine-protein kinase BMX (Homo sapiens, UniProt P51813); experiment: Inhibition of Flag-tagged BMX (unknown origin) expressed in HEK293T cells pre incubated for 30 mins followed by ATP addition and measured after 20 mins by immunoprecipitate assay; type: cell-based
RV-1 [25] = experiment: Induction of apoptosis in human RV-1 cells assessed as increase in cleaved caspase-3 protein expression at 5 uM incubated for 3 days by immunostaining analysis; type: functional, cell-based; conditions: time 3.0 day
RV-1 [26] = experiment: Antiproliferative activity against human RV-1 cells assessed as reduction in cell viability at 500 to 2500 nM incubated for 5 days in presence of WYE125132 by CellTiter-Glo assay; type: functional, cell-based; conditions: dose 500-2500 nM, time 5.0 day
[27] = Induction of cell cycle arrest in human RV-1 cells assessed as accumulation of cells at G1 phase at 2.5 uM incubated for 5 days by propidium iodide staining based flow cytometric analysis (reference value: 59.7 %); type: functional; conditions: time 5 day
[28] = Induction of cell cycle arrest in human RV-1 cells assessed as accumulation of cells at G2/M phase at 2.5 uM incubated for 5 days in presence of MK2206 by propidium iodide staining based flow cytometric analysis (reference value: 11.4 %); type: functional; conditions: time 5 day
[29] = Inhibition of PI3K/AKT/mTOR signalling pathway in human RV-1 cells assessed as decrease in GSKalpha/beta phosphorylation at 2.5 uM incubated for 4 hrs by immunoblot analysis; type: cell-based
[30] = Inhibition of PI3K/AKT/mTOR signalling pathway in human RV-1 cells assessed as decrease in PRAS40 phosphorylation at T246 residue at 2.5 uM incubated for 4 hrs by immunoblot analysis; type: cell-based
[31] = Inhibition of PI3K/AKT/mTOR signalling pathway in human RV-1 cells assessed as decrease in S6K phosphorylation at T389 residue at 2.5 uM incubated for 5 days in presence of MK2206 by immunoblot analysis; type: cell-based; conditions: time 5.0 day

Chain of Ribosomal protein S6 kinase alpha-1 (Homo sapiens) (Q15418 whole entry, the tested form may be a part): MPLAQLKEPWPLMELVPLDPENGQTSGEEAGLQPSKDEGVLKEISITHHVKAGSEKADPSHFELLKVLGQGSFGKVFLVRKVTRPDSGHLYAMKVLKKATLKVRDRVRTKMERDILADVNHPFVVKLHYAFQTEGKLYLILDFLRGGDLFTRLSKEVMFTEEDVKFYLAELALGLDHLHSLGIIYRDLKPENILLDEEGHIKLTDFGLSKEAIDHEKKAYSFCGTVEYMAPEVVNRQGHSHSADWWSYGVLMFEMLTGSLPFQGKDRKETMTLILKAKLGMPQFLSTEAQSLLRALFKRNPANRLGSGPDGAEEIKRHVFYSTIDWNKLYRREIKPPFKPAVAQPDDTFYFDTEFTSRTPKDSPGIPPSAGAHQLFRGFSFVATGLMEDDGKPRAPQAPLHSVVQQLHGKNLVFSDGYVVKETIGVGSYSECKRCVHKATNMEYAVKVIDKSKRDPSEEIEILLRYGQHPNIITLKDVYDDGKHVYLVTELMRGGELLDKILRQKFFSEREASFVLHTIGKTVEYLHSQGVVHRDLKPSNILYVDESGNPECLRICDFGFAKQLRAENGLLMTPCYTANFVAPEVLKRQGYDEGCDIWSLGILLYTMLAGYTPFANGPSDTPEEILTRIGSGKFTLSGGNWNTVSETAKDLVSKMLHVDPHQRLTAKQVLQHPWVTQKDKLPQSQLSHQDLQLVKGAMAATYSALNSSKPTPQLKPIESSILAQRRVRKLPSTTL
Chain of Tyrosine-protein kinase JAK1 (Homo sapiens) (P23458 whole entry, the tested form may be a part): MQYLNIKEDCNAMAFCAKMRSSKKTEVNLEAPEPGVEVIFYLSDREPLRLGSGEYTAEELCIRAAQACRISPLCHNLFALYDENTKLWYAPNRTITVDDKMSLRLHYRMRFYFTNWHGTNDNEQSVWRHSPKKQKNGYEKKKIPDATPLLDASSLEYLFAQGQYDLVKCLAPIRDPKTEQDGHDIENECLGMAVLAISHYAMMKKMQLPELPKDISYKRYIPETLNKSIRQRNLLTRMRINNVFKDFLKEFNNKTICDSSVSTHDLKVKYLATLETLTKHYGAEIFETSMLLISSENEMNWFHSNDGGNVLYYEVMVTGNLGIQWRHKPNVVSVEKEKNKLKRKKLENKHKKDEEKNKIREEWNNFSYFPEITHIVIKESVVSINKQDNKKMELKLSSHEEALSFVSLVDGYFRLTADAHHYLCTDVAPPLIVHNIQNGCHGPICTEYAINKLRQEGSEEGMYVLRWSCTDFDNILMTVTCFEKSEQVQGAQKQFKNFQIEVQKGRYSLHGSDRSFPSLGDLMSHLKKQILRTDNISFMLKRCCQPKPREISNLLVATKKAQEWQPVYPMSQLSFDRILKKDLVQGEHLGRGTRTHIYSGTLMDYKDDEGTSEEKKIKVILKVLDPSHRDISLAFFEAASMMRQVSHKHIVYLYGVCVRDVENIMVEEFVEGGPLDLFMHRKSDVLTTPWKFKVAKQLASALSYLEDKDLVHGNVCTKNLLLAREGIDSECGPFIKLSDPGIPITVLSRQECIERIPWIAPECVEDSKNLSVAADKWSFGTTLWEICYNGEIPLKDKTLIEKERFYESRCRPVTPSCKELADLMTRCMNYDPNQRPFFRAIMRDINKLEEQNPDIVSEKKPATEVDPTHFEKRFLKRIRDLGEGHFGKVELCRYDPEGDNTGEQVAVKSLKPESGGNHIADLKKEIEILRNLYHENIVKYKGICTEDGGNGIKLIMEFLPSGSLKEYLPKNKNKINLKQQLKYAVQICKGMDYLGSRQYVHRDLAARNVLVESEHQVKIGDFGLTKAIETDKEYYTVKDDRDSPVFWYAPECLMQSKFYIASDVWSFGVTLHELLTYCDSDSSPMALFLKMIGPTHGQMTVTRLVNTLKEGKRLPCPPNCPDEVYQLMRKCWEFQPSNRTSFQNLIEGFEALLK
Chain of Bone morphogenetic protein receptor type-2 (Homo sapiens) (Q13873 whole entry): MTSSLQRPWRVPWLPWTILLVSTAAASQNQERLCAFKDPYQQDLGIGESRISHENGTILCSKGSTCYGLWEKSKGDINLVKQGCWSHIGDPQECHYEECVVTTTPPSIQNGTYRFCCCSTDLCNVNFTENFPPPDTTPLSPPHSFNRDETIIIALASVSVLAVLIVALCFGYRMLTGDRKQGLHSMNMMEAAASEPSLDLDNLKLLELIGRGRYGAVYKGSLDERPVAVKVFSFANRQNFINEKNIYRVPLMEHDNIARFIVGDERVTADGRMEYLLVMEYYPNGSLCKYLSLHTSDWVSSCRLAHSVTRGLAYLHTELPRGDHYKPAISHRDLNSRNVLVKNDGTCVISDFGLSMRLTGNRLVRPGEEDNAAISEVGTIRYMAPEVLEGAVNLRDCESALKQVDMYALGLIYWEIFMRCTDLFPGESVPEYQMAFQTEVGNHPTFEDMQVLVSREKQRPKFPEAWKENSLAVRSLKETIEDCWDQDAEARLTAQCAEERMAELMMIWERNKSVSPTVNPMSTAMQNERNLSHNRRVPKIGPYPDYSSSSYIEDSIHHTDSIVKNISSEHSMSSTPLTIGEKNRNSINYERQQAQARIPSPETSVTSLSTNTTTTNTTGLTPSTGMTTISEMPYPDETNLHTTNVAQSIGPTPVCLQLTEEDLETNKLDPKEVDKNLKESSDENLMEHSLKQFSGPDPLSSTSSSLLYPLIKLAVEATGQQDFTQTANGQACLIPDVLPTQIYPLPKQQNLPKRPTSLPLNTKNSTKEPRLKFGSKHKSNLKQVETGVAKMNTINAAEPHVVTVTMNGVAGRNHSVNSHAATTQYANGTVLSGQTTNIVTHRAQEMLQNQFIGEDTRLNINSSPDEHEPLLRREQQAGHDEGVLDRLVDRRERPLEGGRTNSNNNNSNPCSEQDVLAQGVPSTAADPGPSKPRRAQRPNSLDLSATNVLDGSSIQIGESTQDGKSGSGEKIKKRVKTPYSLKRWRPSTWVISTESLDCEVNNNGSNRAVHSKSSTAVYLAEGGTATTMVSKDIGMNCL
Chain of Mitogen-activated protein kinase kinase kinase 11 (Homo sapiens) (Q16584 whole entry, looked up): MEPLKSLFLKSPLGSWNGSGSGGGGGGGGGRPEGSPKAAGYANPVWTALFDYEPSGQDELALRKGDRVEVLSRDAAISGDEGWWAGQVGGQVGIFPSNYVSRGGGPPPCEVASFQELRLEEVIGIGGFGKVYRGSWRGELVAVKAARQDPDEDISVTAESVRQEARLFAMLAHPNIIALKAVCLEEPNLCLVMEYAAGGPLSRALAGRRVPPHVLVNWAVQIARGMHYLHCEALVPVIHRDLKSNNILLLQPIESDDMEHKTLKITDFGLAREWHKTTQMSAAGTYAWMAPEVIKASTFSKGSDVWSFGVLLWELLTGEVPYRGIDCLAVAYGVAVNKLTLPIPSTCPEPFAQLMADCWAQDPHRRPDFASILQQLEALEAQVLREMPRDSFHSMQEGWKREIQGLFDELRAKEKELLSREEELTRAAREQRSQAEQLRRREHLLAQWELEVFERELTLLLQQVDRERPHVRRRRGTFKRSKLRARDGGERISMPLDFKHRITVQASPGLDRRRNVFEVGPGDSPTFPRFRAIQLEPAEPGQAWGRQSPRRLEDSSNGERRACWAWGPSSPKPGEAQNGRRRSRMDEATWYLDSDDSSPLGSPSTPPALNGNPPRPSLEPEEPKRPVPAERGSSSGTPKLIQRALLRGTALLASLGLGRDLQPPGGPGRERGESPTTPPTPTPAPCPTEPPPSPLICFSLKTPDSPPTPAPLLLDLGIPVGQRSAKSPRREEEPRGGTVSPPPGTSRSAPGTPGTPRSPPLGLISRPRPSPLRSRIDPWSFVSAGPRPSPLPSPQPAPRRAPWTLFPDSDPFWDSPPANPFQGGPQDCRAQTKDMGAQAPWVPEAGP
Chain of Mitogen-activated protein kinase kinase kinase 12 (Homo sapiens) (Q12852 whole entry): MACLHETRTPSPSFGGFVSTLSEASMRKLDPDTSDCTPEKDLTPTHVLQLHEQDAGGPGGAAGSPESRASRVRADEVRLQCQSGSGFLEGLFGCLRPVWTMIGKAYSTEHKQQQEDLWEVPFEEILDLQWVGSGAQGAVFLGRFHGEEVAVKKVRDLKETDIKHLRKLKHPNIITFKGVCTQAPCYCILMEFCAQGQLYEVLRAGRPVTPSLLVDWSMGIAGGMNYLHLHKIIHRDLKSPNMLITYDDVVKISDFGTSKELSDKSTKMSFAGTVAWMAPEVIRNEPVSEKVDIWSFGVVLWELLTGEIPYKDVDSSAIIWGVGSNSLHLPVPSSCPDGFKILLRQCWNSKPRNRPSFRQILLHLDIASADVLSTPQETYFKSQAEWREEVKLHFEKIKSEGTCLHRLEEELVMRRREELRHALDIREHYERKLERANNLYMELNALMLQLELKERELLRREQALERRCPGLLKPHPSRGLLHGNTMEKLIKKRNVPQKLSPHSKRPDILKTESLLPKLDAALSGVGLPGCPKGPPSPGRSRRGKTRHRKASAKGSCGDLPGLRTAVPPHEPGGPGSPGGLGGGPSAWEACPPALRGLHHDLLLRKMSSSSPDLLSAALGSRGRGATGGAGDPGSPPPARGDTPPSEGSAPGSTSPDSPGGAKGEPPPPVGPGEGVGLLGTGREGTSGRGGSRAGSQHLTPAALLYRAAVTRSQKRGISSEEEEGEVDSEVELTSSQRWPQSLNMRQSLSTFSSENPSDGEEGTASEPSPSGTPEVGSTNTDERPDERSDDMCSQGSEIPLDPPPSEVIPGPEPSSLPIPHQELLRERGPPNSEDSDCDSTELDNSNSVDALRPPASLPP
Chain of Mitogen-activated protein kinase 14 (Homo sapiens) (Q16539 whole entry): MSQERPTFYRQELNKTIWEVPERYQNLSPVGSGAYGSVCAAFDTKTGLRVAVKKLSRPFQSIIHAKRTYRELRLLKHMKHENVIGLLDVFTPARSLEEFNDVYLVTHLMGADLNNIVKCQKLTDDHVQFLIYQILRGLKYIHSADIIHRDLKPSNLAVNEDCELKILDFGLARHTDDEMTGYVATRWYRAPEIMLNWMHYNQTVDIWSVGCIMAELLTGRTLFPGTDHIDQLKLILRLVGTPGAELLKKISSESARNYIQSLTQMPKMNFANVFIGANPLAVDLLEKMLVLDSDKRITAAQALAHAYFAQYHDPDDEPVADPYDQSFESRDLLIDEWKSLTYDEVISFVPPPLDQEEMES

SMILES: C=CC(=O)Nc1cc(-n2c(=O)ccc3cnc4ccc(-c5ccc(NS(C)(=O)=O)cc5)cc4c32)ccc1C
- Activity [1]: 62%
- Activity [2]: 98%
- GI50 [3]: 2.53 µM
- GI50 (VCaP): 2.46 µM
- Activity [4]: 81%
- Activity [5]: 87%
- Activity [6]: 84%
- Activity [7]: 69%
- Activity [8]: 76%
- Activity [9]: 99%
- Activity [10]: 84%
- Activity [11]: 96%
- Activity [12]: 70%
- Activity [13]: 78%
- Activity [14]: 99%
- Activity [15]: 97%
- Activity [16]: 85%
- Activity [17]: 87%
- Activity [18]: 86%
- Activity [19]: 93%
- Activity [20]: 70%
- Activity [21]: 91%
- Activity [22]: 56%
- Activity [23]: 76%
- IC50 [24]: 0.138 µM
- Activity (RV-1 [25]): Active
- Activity (RV-1 [26]): Active
- Activity [27]: 70.3%
- Activity [28]: 11.5%
- inhibition [29]: inactive
- inhibition [30]: inactive
- inhibition [31]: Active
